# Target: GST-Xa-hAAK1 (Homo sapiens (Human), UniProt Q2M2I8)
# Assay: biochemical
# Conditions: not given
# Experimental: The assays were performed in U-bottom 384-well plates. […] The reactions were initiated by the combination of bacterially expressed, GST-Xa-hAAK1 with substrates and test compounds. The reactions were incubated at room temperature for 3 hours and terminated by adding 60 μl of 35 mM EDTA buffer to each sample. The reactions were analyzed on the Caliper LabChip 3000 (Caliper, Hopkinton, Mass.) by electrophoretic separation of the fluorescent substrate and phosphorylated product. […] Compounds were dissolved at 10 mM in dimethylsulfoxide (DMSO) and evaluated at eleven concentrations. IC50 values were derived by non-linear regression analysis.
# Sequence of GST-Xa-hAAK1 (Q2M2I8 whole entry): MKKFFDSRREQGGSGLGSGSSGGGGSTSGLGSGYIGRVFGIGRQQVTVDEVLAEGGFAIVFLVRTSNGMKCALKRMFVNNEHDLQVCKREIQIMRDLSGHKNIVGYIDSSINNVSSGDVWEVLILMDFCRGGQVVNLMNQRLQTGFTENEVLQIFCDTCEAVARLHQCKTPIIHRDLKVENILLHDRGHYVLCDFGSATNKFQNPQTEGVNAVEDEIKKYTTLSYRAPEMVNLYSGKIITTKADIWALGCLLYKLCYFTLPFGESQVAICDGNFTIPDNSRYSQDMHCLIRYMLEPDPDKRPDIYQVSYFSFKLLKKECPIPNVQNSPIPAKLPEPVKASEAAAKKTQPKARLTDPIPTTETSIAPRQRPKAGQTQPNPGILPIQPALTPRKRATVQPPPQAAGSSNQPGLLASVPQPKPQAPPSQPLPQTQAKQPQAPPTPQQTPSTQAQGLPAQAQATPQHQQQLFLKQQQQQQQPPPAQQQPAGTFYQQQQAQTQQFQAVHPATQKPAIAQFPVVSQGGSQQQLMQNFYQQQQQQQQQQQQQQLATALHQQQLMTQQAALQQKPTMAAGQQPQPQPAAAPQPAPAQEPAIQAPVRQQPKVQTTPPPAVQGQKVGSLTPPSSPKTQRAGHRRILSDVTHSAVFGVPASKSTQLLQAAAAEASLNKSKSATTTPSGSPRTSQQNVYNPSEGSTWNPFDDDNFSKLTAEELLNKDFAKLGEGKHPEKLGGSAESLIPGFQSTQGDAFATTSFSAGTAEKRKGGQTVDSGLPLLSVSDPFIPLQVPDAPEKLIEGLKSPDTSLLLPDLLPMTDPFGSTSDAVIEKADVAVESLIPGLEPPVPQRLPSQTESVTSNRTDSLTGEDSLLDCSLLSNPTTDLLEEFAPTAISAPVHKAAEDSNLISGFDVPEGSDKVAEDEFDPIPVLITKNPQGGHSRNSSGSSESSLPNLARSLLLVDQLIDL
row,Structure (SMILES),IC50 [nM]
1,"COc1cc2nc([C@H](N)CC(C)C)[nH]c2cc1-c1ccncc1 [Example 47, (R)-1-(5-methoxy-6-(pyridin-4-yl)-1H-benzo[d]imidazol-2-yl)-3-methylbutan-1-amine]",487
2,"CC1(C)CC1c1nc2ccc(-c3ccncc3)cc2[nH]1 (stereo not drawn) [Example 49, 2-(2,2-dimethylcyclopropyl)-6-(pyridin-4-yl)-1H-benzo[d]imidazole]",338
3,"Cn1nc(C(C)(C)C)cc1-c1nc2ccc(-c3ccncc3)cc2[nH]1 [Example 50, 2-(3-(tert-butyl)-1-methyl-1H-pyrazol-5-yl)-6-(pyridin-4-yl)-1H-benzo[d]imidazole]",1730
4,"CC(C)N1CC(c2nc3ccc(-c4ccncc4)cc3[nH]2)CC1=O (stereo not drawn) [Example 51, 1-isopropyl-4-(6-(pyridin-4-yl)-1H-benzo[d]imidazol-2-yl)pyrrolidin-2-one]",783
5,"CC(C)OCc1nc2ccc(-c3ccncc3)cc2[nH]1 [Example 54, 2-(isopropoxymethyl)-6-(pyridin-4-yl)-1H-benzo[d]imidazole]",785
6,"CC(C)(C)OCc1nc2ccc(-c3ccncc3)cc2[nH]1 [Example 55, 2-(tert-butoxymethyl)-6-(pyridin-4-yl)-1H-benzo[d]imidazole]",1790
7,"CN[C@H](CC(C)C)c1nc2cc(-c3ccncc3)ccc2[nH]1 [Example 62, N,3-dimethyl-1-(5-(pyridin-4-yl)-1H-benzo[d]imidazol-2-yl) butan-1-amine]",12
8,"CN[C@H](CC(C)C)c1nc2cc(-c3ccnc(NC(C)=O)c3)ccc2[nH]1 [Example 63, (R)-N-(4-(2-(3-methyl-1-(methylamino)butyl)-1H-benzo[d]imidazol-5-yl)pyridin-2-yl)acetamide]",14
9,"CC(C)CC(CN)c1nc2cc(-c3ccncc3)ccc2[nH]1 (stereo not drawn) [Example 67, 4-methyl-2-(5-(pyridin-4-yl)-1H-benzo[d]imidazol-2-yl) pentan-1-amine]",49
10,"COc1cc2[nH]c([C@H](N)C3CCCC3)nc2cc1-c1cnco1 [Example 68, (R)-cyclopentyl (6-methoxy-5-(oxazol-5-yl)-1H-benzo[d]imidazol-2-yl) methanamine]",50
11,"COc1cc2[nH]c(CC3CCCC3)nc2cc1-c1cnco1 [Example 69, 5-(2-(cyclopentylmethyl)-6-methoxy-1H-benzo[d]imidazol-5-yl) oxazole]",57
12,"N[C@H](CC1CC1)c1nc2cc(-c3ccncc3)ccc2[nH]1 [Example 70, (R)-2-cyclopropyl-1-(5-(pyridin-4-yl)-1H-benzo[d]imidazol-2-yl) ethanamine]",61
13,"COc1cc2[nH]c(C(N)CC3CCCC3)nc2cc1-c1cnco1 (stereo not drawn) [Example 71, 2-cyclopentyl-1-(6-methoxy-5-(oxazol-5-yl)-1H-benzo[d]imidazol-2-yl)ethanamine]",70
14,"c1cc(-c2ccc3[nH]c(CC4CCCCC4)nc3c2)ccn1 [Example 72, 2-(cyclohexylmethyl)-5-(pyridin-4-yl)-1H-benzo[d]imidazole]",108
15,"CNC(CC(C)C)c1nc2cc(-c3ccncc3)c(OC)cc2[nH]1 (stereo not drawn) [Example 73, 1-(6-methoxy-5-(pyridin-4-yl)-1H-benzo[d]imidazol-2-yl)-N,3-dimethylbutan-1-amine]",180
16,"N[C@@H](c1nc2cc(-c3ccncc3)ccc2[nH]1)C1CC1 [Example 74, (R)-cyclopropyl (5-(pyridin-4-yl)-1H-benzo[d]imidazol-2-yl)methanamine]",228
17,"CN[C@H](CC(C)C)c1nc2cc(-c3ccnc(N(C)C)c3)ccc2[nH]1 [Example 75, (R)-N,N-dimethyl-4-(2-(3-methyl-1-(methylamino)butyl)-1H-benzo[d]imidazol-5-yl) pyridin-2-amine]",244
18,"N[C@@H](c1nc2cc(-c3ccncc3)ccc2[nH]1)C1CCOCC1 [Example 77, (R)-(5-(pyridin-4-yl)-1H-benzo[d]imidazol-2-yl) (tetrahydro-2H-pyran-4-yl) methanamine]",436
19,"Cc1noc(C)c1-c1ccc2[nH]c([C@H](N)CC(C)C)nc2c1 [Example 78, (R)-1-(5-(3,5-dimethylisoxazol-4-yl)-1H-benzo[d]imidazol-2-yl)-3-methylbutan-1-amine]",510
20,"CC(c1nc2cc(-c3ccncc3)ccc2[nH]1)N1CCOCC1 (stereo not drawn) [Example 79, 4-(1-(5-(pyridin-4-yl)-1H-benzo[d]imidazol-2-yl)ethyl)morpholine]",591
21,"CC(C)C[C@@H](NC(=O)C(F)(F)F)c1nc2cc(-c3ccncc3)ccc2[nH]1 [Example 80, (R)-2,2,2-trifluoro-N-(3-methyl-1-(5-(pyridin-4-yl)-1H-benzo[d]imidazol-2-yl)butyl)acetamide]",697
22,"CC1CCCC(c2nc3ccc(-c4ccncc4)cc3[nH]2)C1 (stereo not drawn) [Example 81, 2-(3-methylcyclohexyl)-6-(pyridin-4-yl)-1H-benzo[d]imidazole]",1430
23,"COc1cc2[nH]c([C@H](N)C3CCCC3)nc2cc1-c1ccncc1 [Example 82, (R)-cyclopentyl(6-methoxy-5-(pyridin-4-yl)-1H-benzo[d]imidazol-2-yl)methanamine]",1800

# Same assay, conditions: ATP 22 μM; GST-Xa-hAAK1 3.5 nM; room temperature for 3 hours; Caliper LabChip 3000; read-out: AAK1 IC50
row,Structure (SMILES),IC50 [nM]
1,"CC(C)C[C@@H](N)c1nc2ccc(-c3cnco3)cc2n1CCO [Example 41, (R)-2-(2-(1-amino-3-methylbutyl)-6-(oxazol-5-yl)-1H-benzo[d]imidazol-1-yl)ethanol]",559
2,"CC(C)C[C@@H](N)c1nc2ccc(-c3ccncc3)cc2n1C [Example 42, (R)-3-methyl-1-(1-methyl-6-(pyridin-4-yl)-1H-benzo[d]imidazol-2-yl)butan-1-amine]",159
3,"CCCn1c([C@H](N)CC(C)C)nc2ccc(-c3ccncc3)cc21 [Example 43, (R)-3-methyl-1-(1-propyl-6-(pyridin-4-yl)-1H-benzo[d]imidazol-2-yl)butan-1-amine]",103
4,"CC(C)C[C@@H](N)c1nc2ccc(-c3ccncc3)cc2n1C(C)C [Example 44, (R)-1-(1-isopropyl-6-(pyridin-4-yl)-1H-benzo[d]imidazol-2-yl)-3-methylbutan-1-amine]",124
5,"CCn1c([C@H](N)CC(C)C)nc2cc(-c3ccncc3)ccc21 [Example 45, (R)-1-(1-ethyl-5-(pyridin-4-yl)-1H-benzo[d]imidazol-2-yl)-3-methylbutan-1-amine]",749
6,"CCn1c([C@H](N)CC(C)C)nc2cc(-c3cnco3)ccc21 [Example 46, (R)-1-(1-ethyl-5-(oxazol-5-yl)-1H-benzo[d]imidazol-2-yl)-3-methylbutan-1-amine]",1540
7,"CC1CC1c1nc2ccc(-c3ccncc3)cc2[nH]1 (stereo not drawn) [Example 48, 2-(2-methylcyclopropyl)-6-(pyridin-4-yl)-1H-benzo[d]imidazole]",897
8,"COc1cnccc1-c1ccc2[nH]c(CCC(C)C)nc2c1 [Example 56, 2-isopentyl-5-(3-methoxypyridin-4-yl)-1H-benzo[d]imidazole]",620
9,"COc1cc(-c2ccc3[nH]c(CCC(C)C)nc3c2)ccn1 [Example 57, 2-isopentyl-5-(2-methoxypyridin-4-yl)-1H-benzo[d]imidazole]",1550
10,"CC(C)CC(C)c1nc2cc(-c3ccncc3)ccc2[nH]1 (stereo not drawn) [Example 58, 2-(4-methylpentan-2-yl)-5-(pyridin-4-yl)-1H-benzo[d]imidazole]",40
11,"CN[C@H](CC(C)C)c1nc2cc(-c3ccnc(N)c3)ccc2[nH]1 [Example 59, (R)-4-(2-(3-methyl-1-(methylamino)butyl)-1H-benzo[d]imidazol-5-yl)pyridin-2-amine]",7
12,"CNc1cc(-c2ccc3[nH]c([C@@H](CC(C)C)NC)nc3c2)ccn1 [Example 61, (R)-N-methyl-4-(2-(3-methyl-1-(methylamino)butyl)-1H-benzo[d]imidazol-5-yl) pyridin-2-amine]",8
13,"COc1cc2[nH]c([C@H](N)C3CCCCC3)nc2cc1-c1cnco1 [Example 64, (R)-cyclohexyl(6-methoxy-5-(oxazol-5-yl)-1H-benzo[d]imidazol-2-yl)methanamine]",16
14,"CC(C)CC(CN)c1nc2cc(-c3cnco3)ccc2[nH]1 (stereo not drawn) [Example 65, 4-methyl-2-(5-(oxazol-5-yl)-1H-benzo[d]imidazol-2-yl)pentan-1-amine]",26
15,"CC(C)(F)CC(N)c1nc2cc(-c3ccncc3)ccc2[nH]1 (stereo not drawn) [Example 76, 3-fluoro-3-methyl-1-(5-(pyridin-4-yl)-1H-benzo[d]imidazol-2-yl)butan-1-amine]",350
16,"CC(C)CC(N)c1nc2cc(-c3ccncc3)ccc2o1 (stereo not drawn) [Example 83, 3-methyl-1-(5-(pyridin-4-yl)benzo[d]oxazol-2-yl)butan-1-amine]",71
17,"CC(C)CC(N)c1nc2ccc(-c3ccncc3)cc2o1 (stereo not drawn) [Example 84, 3-methyl-1-(6-(pyridin-4-yl)benzo[d]oxazol-2-yl)butan-1-amine]",438
18,"CC(C)CCc1nc2ccc(-c3ccncc3)cc2o1 [Example 85, 2-isopentyl-6-(pyridin-4-yl)benzo[d]oxazole]",833
19,"CC(C)CC(C)c1nc2ccc(-c3ccncc3)cc2o1 (stereo not drawn) [Example 87, 2-(4-methylpentan-2-yl)-6-(pyridin-4-yl)benzo[d]oxazole]",92
20,"CC(C)CC(C)c1nc2cc(-c3ccncc3)ccc2o1 (stereo not drawn) [Example 88, 2-(4-methylpentan-2-yl)-5-(pyridin-4-yl)benzo[d]oxazole]",62

# Same assay, conditions: read-out: AAK1 IC50
row,Structure (SMILES),IC50 [nM]
1,"CC(C)C[C@@H](NCC(F)(F)F)c1nc2cc(-c3ccncc3)ccc2[nH]1 [Example 66, 3-methyl-1-(5-(pyridin-4-yl)-1H-benzo[d]imidazol-2-yl)-N-(2,2,2-trifluoroethyl)butan-1-amine]",45
2,"C/C(=C\C(C)C)c1nc2cc(-c3ccncc3)ccc2o1 [Example 86, (E)-2-(4-methylpent-2-en-2-yl)-5-(pyridin-4-yl)benzo[d]oxazole]",2310
